The test system of series [1] is B. cereus ATCC 13061. In words: MIC determination. The note with it: Bacillus cereus, ATCC13061. The class given is cell-based. From the text: (§1) The ESKAPE organisms (E. faecium NCTC (ATCC 19734), S. aureus ATCC 29213, K. pneumonia ATCC 700603, A. baumannii ATCC 17961, P. aeruginosa ATCC 17853, E. aerogenes ATCC 35029) and E. coli ATCC 25922) in the initial screen, S. aureus ATCC 27660, S. epidermis ATCC 35547, S. haemolyticus ATCC 29970, S. oralis ATCC 9811, S. pyogenes ATCC 49399, B. cereus ATCC 13061, B. licheniformis ATCC 12759, and E. faecalis ATCC 29212 were purchased from the American Type Culture Collection (Manassas, Va., USA). S. aureus strains NRS100, NRS119, NRS120, VRS1, and VRS2 were obtained from the Network on Antimicrobial Resistance in Staphylococcus aureus (Chantilly, Va., USA). E. faecalis strains 201 and 99, and E. faecium strains 119-39A and 106 were collected from Wayne State University School of Medicine.
(§2) The procedure for MIC determination was the same as previously reported (Tran et al., Am. J. Clin. Dermatol. 2015; doi 10.1007/S40257-015-0125-9).

In series [2] the test system is B. licheniformis ATCC 12759. In words: MIC determination. The note with it: Bacillus licheniformis, ATCC12759. The class given is cell-based.
Excerpt: as §1, §2

For series [3], the system named is E. faecalis 201 (Van S). Kind of series: MIC determination. The format is cell-based. The note with it: Enterococcus faecalis.
Excerpt: as §1, §2

Series [4] relates to E. faecalis 99 (Van R). Kind of series: MIC determination. The format is cell-based. The note with it: Enterococcus faecalis; vancomycin-resistant clinical isolate; Tables 1 and 5.
Excerpt: as §1, §2

Series [5] has as its system E. faecalis ATCC 29212. Kind of series: MIC determination. The class given is cell-based. The note with it: Enterococcus faecalis, ATCC29212.
Excerpt: as §1, §2

In series [6] the test system is E. faecium 106 (Van R). In words: MIC determination. The format is cell-based. The note with it: Enterococcus faecium; vancomycin-resistant clinical isolate; Tables 1 and 5; read-out: MIC.
Excerpt: as §1, §2

Series [7] relates to E. faecium 119-39A (Van S). Kind of series: MIC determination. The format is cell-based. The note with it: Enterococcus faecium.
Excerpt: as §1, §2

The subject of series [8] is S. aureus ATCC 27660. In words: MIC determination. The class given is cell-based. The note with it: Staphylococcus aureus, ATCC27660.
Excerpt: as §1, §2

For series [9], the system named is S. aureus NRS100 (COL). Kind of series: MIC determination. The class given is cell-based. The note with it: Staphylococcus aureus.
Excerpt: as §1, §2

In series [10] the test system is S. aureus NRS120. Kind of series: MIC determination. The class given is cell-based. The note with it: Staphylococcus aureus.
Excerpt: as §1, §2

The test system of series [11] is S. aureus VRS1. Kind of series: MIC determination. The format is cell-based. The note with it: Staphylococcus aureus.
Excerpt: as §1, §2

In series [12] the test system is S. aureus VRS2. Kind of series: MIC determination. The class given is cell-based. The note with it: Staphylococcus aureus.
Excerpt: as §1, §2

Series [13] has as its system S. epidermis ATCC 35547. Kind of series: MIC determination. The format is cell-based.
Excerpt: as §1, §2

Series [14] relates to S. haemolyticus ATCC 29970. In words: MIC determination. The class given is cell-based. The note with it: Staphylococcus haemolyticus, ATCC29970.
Excerpt: as §1, §2

Series [15] concerns S. oralis ATCC 9811. In words: MIC determination. The note with it: Streptococcus oralis, ATCC9811. The format is cell-based.
Excerpt: as §1, §2

The test system of series [16] is S. pyogenes ATCC 49399. Kind of series: MIC determination. The format is cell-based. The note with it: Streptococcus pyogenes, ATCC49399.
Excerpt: as §1, §2

Series [17] can be described thus: Plasma protein binding, equilibrium dialysis. The note with it: 10 μM, 37° C., 6 h. The protocol:
Protein binding for compounds 60b, 60c, 65b, 66b, 75b and 76b was determined in human plasma using equilibrium dialysis.
Plasma protein binding was determined using human plasma and a rapid equilibrium dialysis device (Pierce Biotechnology, Thermo Scientific, Waltham, Mass., USA). Human plasma was thawed and centrifuged at 1200 g for 10 min to remove particulates. A […] aliquot of human plasma was added to the sample chamber and 350 μL of 0.1 M phosphate buffered saline (pH 7.4) containing […] sodium chloride was added to the adjacent chamber. A 2-μL aliquot of a stock solution of the compounds at a concentration of 1 mM in DMSO was diluted with human plasma to a final drug concentration of 10 μM and added to the sample chamber. The compounds were dialyzed at 37° C. in an orbital shaker for 6 h. Aliquots (50 μL) were taken from the buffer chamber (representing the free concentration) and from the plasma chamber (representing the total concentration) and mixed with 100 μL of internal standard in acetonitrile to a final concentration of 5 μM. Samples were analyzed by UPLC with UV detection at 285 nm. The plasma protein binding ratio (B %) was calculated according to the following equation: B%=(Cp−Cf)/Cp×100 where Cp and Cf are the total plasma concentration and the free concentration of compound, respectively.
A general note: Equilibrium dialysis compares concentrations on both sides of a semipermeable membrane.

Series [18] has as its system S. aureus NRS119. In words: MIC determination. The class given is cell-based. The note with it: Staphylococcus aureus.
Excerpt: as §1, §2

Setting [19] is: vancomycin-susceptible clinical isolate, Tables 1 and 5, read-out: MIC.
The mark [20] stands for this setting: quality-control strain, Tables 1 and 5, read-out: MIC.
Setting [21] is: mecA positive, resistant to methicillin, oxacillin, tetracycline, Tables 1 and 5, read-out: MIC.
[22] abbreviates: mecA positive, linezolid-resistant, Tables 1 and 5, read-out: MIC.
Where [23] appears, read: vancomycin-resistant MRSA (vanA) isolate from Michigan, Tables 1 and 5, read-out: MIC.
Where [24] appears, read: vancomycin-resistant MRSA (vanA) isolate from Pennsylvania, Tables 1 and 5, read-out: MIC.

The structures appear in SMILES notation. In brackets after ≈: the same amount, converted by molar mass. Where two headings read alike, the source gives them in different places. Some results are limits rather than exact numbers.

One may read the MIC as the smallest concentration in the dilution series that meets the test's criterion for growth inhibition. Consider `FC(F)(F)c1ccc(Oc2ccc(-c3noc(-c4n[nH]cc4Cl)n3)cc2)cc1` [Compound 60b, 5-(4-Chloro-1H-pyrazol-3-yl)-3-(4-(4-(trifluoromethyl)phenoxy)phenyl)-1,2,4-oxadiazole], for which the MIC was over 128 µg/mL in series [1] (Tables 1 and 5, read-out: MIC); over 128 µg/mL in series [2] (Tables 1 and 5, read-out: MIC); over 128 µg/mL in series [3] (setting [19]); over 128 µg/mL in series [4]; over 128 µg/mL in [5] (setting [20]); over 128 µg/mL in [6]. Also, the MIC in series [7] (setting [19]) is over 128 µg/mL; in [8] (setting [21]) it was 2 µg/mL (≈ 4.92 µM); in [9] (setting [21]), over 128 µg/mL; in [10] (setting [22]), 64 µg/mL (≈ 157 µM); in [11] (setting [23]), 1 to 2 µg/mL (≈ 2.46 to 4.92 µM); in series [12] (setting [24]), 0.5 to 1 µg/mL (≈ 1.23 to 2.46 µM). Further, the MIC in series [13] (Tables 1 and 5, read-out: MIC) is over 128 µg/mL; in series [14] (Tables 1 and 5, read-out: MIC), over 128 µg/mL; in [15] (Table 1, read-out: MIC) it was over 128 µg/mL; in [16] (Table 1, read-out: MIC) it was over 128 µg/mL. Moreover, the “Human plasma protein binding” value in [17] is on record as 97.8 ± 0.3%.

On to `CC(C)Nc1c[nH]nc1-c1nc(-c2ccc(Oc3ccc(C(F)(F)F)cc3)cc2)no1` [Compound 65b, N-Isopropyl-3-(3-(4-(4-(trifluoromethyl)phenoxy)phenyl)-1,2,4-oxadiazol-5-yl)-1H-pyrazol-4-amine], for which the MIC in series [1] is over 128 µg/mL; in series [2], over 128 µg/mL; in series [3], over 128 µg/mL; in series [5], over 128 µg/mL; in series [7] it was over 128 µg/mL; in series [8] it was 0.5 µg/mL (≈ 1.16 µM). Besides, the MIC was over 128 µg/mL in series [9]; 2 µg/mL (≈ 4.66 µM) in series [18]; over 128 µg/mL in series [10]; 1 µg/mL (≈ 2.33 µM) in series [11] (MRSA); 4 µg/mL (≈ 9.32 µM) in [12] (MRSA); over 128 µg/mL in series [13]. Also, the MIC in series [14], in series [15] and in series [16] was over 128 µg/mL throughout. The “Human plasma protein binding” value in series [17] is 91.6 ± 0.3%.

Regarding `C#Cc1c[nH]nc1-c1nc(-c2ccc(Oc3ccc(C(F)(F)F)cc3)cc2)no1` [Compound 66b, 5-(4-Ethynyl-1H-pyrazol-3-yl)-3-(4-(4-(trifluoromethyl)phenoxy)phenyl)-1,2,4-oxadiazole], the MIC is over 128 µg/mL in series [1] (Tables 1 and 5, read-out: MIC); over 128 µg/mL in [2] (Tables 1 and 5, read-out: MIC); over 128 µg/mL in series [3] (setting [19]); over 128 µg/mL in [4]; over 128 µg/mL in series [5] (setting [20]); 0.5 µg/mL (≈ 1.26 µM) in series [8] (setting [21]). The MIC in series [9] (setting [21]) was over 128 µg/mL; in series [18] (setting [22]), 32 µg/mL (≈ 80.7 µM); in [10] (setting [22]), over 128 µg/mL; in series [11] (setting [23]), 1 µg/mL (≈ 2.52 µM); in series [12] (setting [24]), 0.5 µg/mL (≈ 1.26 µM); in series [13] (Tables 1 and 5, read-out: MIC), over 128 µg/mL. Also, the minimum inhibitory concentration (MIC) was over 128 µg/mL in [14] (Tables 1 and 5, read-out: MIC); over 128 µg/mL in series [15] (Table 1, read-out: MIC); over 128 µg/mL in series [16] (Table 1, read-out: MIC). Also, in series [17], the “Human plasma protein binding” value turned out to be 96.4 ± 2.7%.

Source of the values: patent US10662164B2, “Non-beta lactam antibiotics” (University of Notre Dame du Lac, priority 2014, dated 2020).
